The supplement of paper PMC10307832

Assays:
Assay in all cases: relative viability (nuclei count vs DMSO), 5 days (fraction); higher = more cells survive
Bexarotene + Bortezomib = compound: C=C(c1ccc(C(=O)O)cc1)c1cc2c(cc1C)C(C)(C)CCC2(C)C [Bexarotene] + CC(C)C[C@H](NC(=O)[C@H](Cc1ccccc1)NC(=O)c1cnccn1)B(O)O [Bortezomib] (partner 0.002 µM)
Outline: (§1)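 After 5 days of treatment, lung cancer cells in 1536-well plates were fixed and stained in a single step (final 0.05% Triton X-100, 1% formaldehyde, 1 ug/ml Hoechst) and their nuclei counted on 4× images. Treatment had been applied by pin tool the day after seeding as one drug alone or as a fixed anchor-drug dose with five library-drug doses (not always all listed) in √10 steps. Relative viability is the nuclei count of treated wells divided by that of vehicle wells, and values are medians of duplicate plates.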

Bexarotene + Lapatinib = compound: C=C(c1ccc(C(=O)O)cc1)c1cc2c(cc1C)C(C)(C)CCC2(C)C [Bexarotene] + CS(=O)(=O)CCNCc1ccc(-c2ccc3ncnc(Nc4ccc(OCc5cccc(F)c5)c(Cl)c4)c3c2)o1 [Lapatinib] (partner 2 µM)
Outline: as §1

Bexarotene + AZD7762 = compound: C=C(c1ccc(C(=O)O)cc1)c1cc2c(cc1C)C(C)(C)CCC2(C)C [Bexarotene] + NC(=O)Nc1cc(-c2cccc(F)c2)sc1C(=O)N[C@H]1CCCNC1 [AZD7762] (partner 0.2 µM)
Outline: as §1

Bexarotene + Decitabine = compound: C=C(c1ccc(C(=O)O)cc1)c1cc2c(cc1C)C(C)(C)CCC2(C)C [Bexarotene] + Nc1ncn([C@H]2C[C@H](O)[C@@H](CO)O2)c(=O)n1 [Decitabine] (partner 2 µM)
Outline: as §1

| Cell Line | relative viability (Bexarotene + Bortezomib; first compound 0.08 µM) | relative viability (Bexarotene + Bortezomib; first compound 0.253 µM) | relative viability (Bexarotene + Bortezomib; first compound 0.8 µM) | relative viability (Bexarotene + Bortezomib; first compound 2.53 µM) | relative viability (Bexarotene + Bortezomib; first compound 8 µM) | relative viability (Bexarotene + Lapatinib; first compound 0.08 µM) | relative viability (Bexarotene + Lapatinib; first compound 0.253 µM) | relative viability (Bexarotene + Lapatinib; first compound 0.8 µM) | relative viability (Bexarotene + Lapatinib; first compound 2.53 µM) | relative viability (Bexarotene + Lapatinib; first compound 8 µM) | relative viability (Bexarotene + AZD7762; first compound 0.08 µM) | relative viability (Bexarotene + AZD7762; first compound 0.253 µM) | relative viability (Bexarotene + AZD7762; first compound 0.8 µM) | relative viability (Bexarotene + AZD7762; first compound 2.53 µM) | relative viability (Bexarotene + AZD7762; first compound 8 µM) | relative viability (Bexarotene + Decitabine; first compound 0.08 µM) | relative viability (Bexarotene + Decitabine; first compound 0.253 µM) | relative viability (Bexarotene + Decitabine; first compound 0.8 µM) | relative viability (Bexarotene + Decitabine; first compound 2.53 µM) | relative viability (Bexarotene + Decitabine; first compound 8 µM) |
| --- | --- | --- | --- | --- | --- | --- | --- | --- | --- | --- | --- | --- | --- | --- | --- | --- | --- | --- | --- | --- |
| EPLC-272H | 0.968 | 0.875 | 0.538 | 0.776 | 0.822 | 0.982 | 0.825 | 0.898 | 0.746 | 0.865 | 0.199 | 0.259 | 0.517 | 0.208 | 0.271 | 0.414 | 0.36 | 0.353 | 0.368 | 0.414 |
| H3255 | 0.733 | 0.919 | 0.784 | 0.65 | 0.856 | 0.257 | 0.256 | 0.228 | 0.245 | 0.219 | 0.948 | 0.941 | 0.975 | 0.851 | 1.05 | 0.923 | 0.695 | 0.587 | 0.507 | 0.562 |
| HARA | 1.16 | 1.04 | 1.02 | 1.02 | 1.03 | 0.747 | 0.839 | 0.684 | 0.77 | 0.706 | 0.336 | 0.272 | 0.412 | 0.303 | 0.262 | 0.618 | 0.637 | 0.535 | 0.633 | 0.514 |
| HCC-15 | 1.06 | 1.13 | 1.05 | 0.959 | 1.01 | 0.93 | 0.984 | 0.944 | 0.833 | 0.846 | 1.23 | 1.17 | 1.27 | 1.1 | 1.44 | 0.762 | 0.72 | 0.611 | 0.588 | 0.568 |
| HCC-44 | 0.997 | 1 | 0.851 | 0.823 | 0.822 | 1.06 | 1.06 | 0.919 | 0.924 | 0.879 | 0.978 | 1.12 | 0.927 | 0.967 | 0.964 | 1.07 | 0.96 | 0.907 | 1.01 | 0.897 |
| HCC-78 | 0.442 | 0.453 | 0.491 | 0.524 | 0.5 | 0.724 | 0.7 | 0.591 | 0.637 | 0.668 | 0.638 | 0.391 | 0.542 | 0.554 | 0.638 | 0.735 | 0.705 | 0.673 | 0.528 | 0.749 |
| HCC-366 | 1.07 | 0.979 | 1.02 | 1.08 | 1.06 | 0.984 | 1.06 | 1.06 | 1.04 | 1.06 | 0.412 | 0.397 | 0.284 | 0.279 | 0.358 | 0.36 | 0.376 | 0.339 | 0.346 | 0.289 |
| HCC-827 | 0.994 | 1.11 | 0.992 | 0.989 | 1 | 0.274 | 0.159 | 0.185 | 0.196 | 0.196 | 0.227 | 0.213 | 0.405 | 0.196 | 0.36 | 0.396 | 0.311 | 0.33 | 0.298 | 0.335 |
| HOP-62 | 0.611 | 1.05 | 0.916 | 0.645 | 0.81 | 1.02 | 1.09 | 0.943 | 1.14 | 1.1 | 0.626 | 1.04 | 0.718 | 0.412 | 0.669 | 0.222 | 0.183 | 0.183 | 0.164 | 0.208 |
| LC-2-ad | 0.936 | 1.16 | 1.09 | 0.936 | 0.985 | 0.993 | 1.09 | 1.07 | 0.994 | 0.997 | 0.87 | 0.907 | 0.875 | 0.867 | 0.928 | 0.805 | 0.85 | 0.853 | 0.772 | 0.813 |
| LCLC-97TM1 | 0.58 | 0.625 | 0.468 | 0.126 | 0.575 | 1.05 | 1.2 | 1.39 | 1.15 | 1.19 | 0.252 | 0.35 | 0.398 | 0.263 | 0.237 | 0.282 | 0.224 | 0.227 | 0.189 | 0.21 |
| LOU-NH91 | 0.544 | 0.458 | 0.488 | 0.458 | 0.439 | 0.736 | 0.755 | 0.691 | 0.695 | 0.722 | 0.85 | 0.766 | 0.759 | 0.741 | 0.712 | 0.854 | 0.841 | 0.833 | 0.773 | 0.717 |
| LU99A | 1.36 | 1.26 | 1.12 | 1.23 | 1.21 | 1.12 | 0.917 | 0.929 | 0.99 | 1.03 | 0.356 | 0.444 | 0.391 | 0.404 | 0.36 | 1.18 | 1 | 0.935 | 0.909 | 0.889 |
| LXF-289 | 1.15 | 1.08 | 1.14 | 1.09 | 1.16 | 1 | 1.07 | 1.04 | 1.07 | 1.03 | 1.21 | 1.34 | 1.32 | 1.37 | 1.48 | 0.381 | 0.3 | 0.293 | 0.313 | 0.323 |
| NCI-H23 | 1.1 | 1.03 | 1.02 | 0.9 | 0.962 | 1.13 | 1.11 | 1.2 | 1.06 | 1.12 | 0.297 | 0.239 | 0.231 | 0.261 | 0.196 | 0.351 | 0.322 | 0.346 | 0.298 | 0.329 |
| NCI-H322M | 1.3 | 1.4 | 1.26 | 1.17 | 1.32 | 0.634 | 0.572 | 0.658 | 0.625 | 0.578 | 0.518 | 0.645 | 0.585 | 0.548 | 0.568 | 0.68 | 0.748 | 0.655 | 0.678 | 0.731 |
| NCI-H460 | 1.16 | 1.09 | 0.961 | 1.14 | 1.04 | 1.01 | 1.03 | 0.948 | 0.981 | 0.731 | 0.694 | 0.701 | 0.701 | 0.668 | 0.735 | 0.581 | 0.505 | 0.448 | 0.499 | 0.381 |
| NCI-H596 | 1.01 | 0.986 | 0.836 | 0.795 | 0.85 | 1.07 | 1 | 0.783 | 0.916 | 0.928 | 1.19 | 1.01 | 1.01 | 0.976 | 1.02 | 1.11 | 0.966 | 0.974 | 1.09 | 1.02 |
| NCI-H647 | 0.943 | 1.05 | 0.89 | 1.1 | 1.02 | 1.33 | 1.17 | 1.19 | 1.24 | 0.964 | 0.429 | 0.463 | 0.459 | 0.272 | 0.33 | 0.439 | 0.394 | 0.412 | 0.419 | 0.335 |
| NCI-H650 | 0.898 | 1.08 | 0.847 | 0.624 | 0.726 | 1.08 | 1.06 | 0.915 | 0.634 | 0.778 | 1.13 | 0.986 | 1.17 | 0.709 | 1.05 | 0.284 | 0.263 | 0.328 | 0.301 | 0.309 |
| NCI-H727 | 1.21 | 0.735 | 0.899 | 0.822 | 0.955 | 1.02 | 0.887 | 0.881 | 0.762 | 0.811 | 0.537 | 0.635 | 0.598 | 0.617 | 0.633 | 1.02 | 0.748 | 0.826 | 0.847 | 0.885 |
| NCI-H838 | 0.995 | 1.16 | 0.803 | 0.777 | 0.949 | 1.05 | 1.19 | 0.974 | 1.14 | 1.03 | 1.03 | 1.09 | 0.989 | 0.978 | 0.938 | 0.521 | 0.423 | 0.499 | 0.515 | 0.445 |
| NCI-H1355 | 1.17 | 1.35 | 1.21 | 1.32 | 1.14 | 1.02 | 1.1 | 0.898 | 1.1 | 0.936 | 0.868 | 0.841 | 0.671 | 0.9 | 0.682 | 0.379 | 0.332 | 0.416 | 0.388 | 0.346 |
| NCI-H1437 | 0.528 | 0.621 | 0.611 | 0.546 | 0.49 | 0.975 | 0.893 | 0.759 | 0.9 | 0.778 | 1.2 | 1.14 | 1.19 | 1.14 | 1.15 | 0.592 | 0.581 | 0.556 | 0.564 | 0.51 |
| NCI-H1651 | 1.14 | 0.843 | 0.965 | 0.944 | 1.04 | 1.08 | 0.968 | 0.887 | 0.862 | 0.753 | 0.544 | 0.491 | 0.525 | 0.454 | 0.549 | 0.77 | 0.548 | 0.66 | 0.638 | 0.618 |
| NCI-H1666 | 0.742 | 0.701 | 0.727 | 0.719 | 0.75 | 0.753 | 0.588 | 0.446 | 0.512 | 0.504 | 1.02 | 0.839 | 0.82 | 0.817 | 0.895 | 0.813 | 0.696 | 0.773 | 0.689 | 0.693 |
